Data as given in patent publication US6737383B1, “Herbicidal oxadiazolidines” (priority 1999, dated 2004).

Columns and labels:
smallflower flatsedge = test: Test B flood test smallflower flatsedge; assay type: in vivo, Cyperus difformis
In short: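 Read-out is a visual response score from 0 (no effect) to 10 (complete control), assigned by comparison with untreated controls. Treatment was applied at the 2-leaf stage, and plants stayed in the greenhouse for twelve to sixteen days before scoring.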

green foxtail = test: Test E green foxtail; assay type: in vivo, Setaria viridis; conditions: Preemergence
itchgrass = test: Test D itchgrass; assay type: in vivo, Rottboellia exaltata; conditions: Preemergence, 0 to 100 scale
In short: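 Scoring used a 0–100 visual injury scale, with 0 meaning no effect and 100 complete control, assessed 14–21 days after application alongside untreated pots. Preemergence treatments went onto sandy loam surfaces of separately potted seeds within a day of sowing.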

winter barley = test: Test E winter barley; assay type: in vivo, Hordeum vulgare; conditions: Preemergence
Johnson grass = test: Test D Johnson grass; assay type: in vivo, Sorghum halepense; conditions: Preemergence, 0 to 100 scale
In short: (§1)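 Weed seeds planted in sandy loam; species kept apart in individual pots or compartments. Preemergence tests: treatment to soil surface within one day. Greenhouse growth, then visual injury scoring at 14–21 days (0–100).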

crabgrass = test: Test B pre/postemergence crabgrass; assay type: in vivo, Digitaria sanguinalis
In short: (§2)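 Test chemicals in a non-phytotoxic solvent mixture with surfactant were sprayed preemergence onto planted seeds and postemergence onto plants 2 to 18 cm tall (1- to 4-leaf stage). After twelve to sixteen days in a greenhouse, injury was visually rated against untreated controls from 0 (no effect) to 10 (complete control).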

Italian ryegrass = test: Test E Italian ryegrass; assay type: in vivo, Lolium multiflorum; conditions: Preemergence
bermuda-grass = test: Test D bermudagrass; assay type: in vivo, Cynodon dactylon; conditions: Preemergence, 0 to 100 scale
In short: as §1

wild oat [1] = test: Test B pre/postemergence wild oat; assay type: in vivo, Avena fatua; conditions: for Plant response rating, Wild oats: Rate 250 g/ha
In short: as §2

wild oat [2] = test: Test E wild oat; assay type: in vivo, Avena fatua; conditions: Preemergence, 0 to 100 scale where 0 is no effect and 100 is complete control
soybean = test: Test B pre/postemergence soybean; assay type: in vivo, Glycine max
In short: as §2

winter wheat [3] = test: Test E winter wheat; assay type: in vivo, Triticum aestivum; conditions: Postemergence
In short: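 Each compound, carried in a non-phytotoxic solvent blend including surfactant, was applied (postemergence: over the top of young plants at 1- to 4-leaf stage). Plants stayed in the greenhouse about 21 to 28 days before visual comparison with untreated controls.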

winter wheat [4] = test: Test E winter wheat; assay type: in vivo, Triticum aestivum; conditions: Preemergence
blackgrass = test: Test E blackgrass; assay type: in vivo, Alopecurus myosuroides; conditions: Preemergence
wheat = test: Test B pre/postemergence wheat; assay type: in vivo, Triticum aestivum; conditions: for Plant response rating, Wheat: Rate 250 g/ha
In short: as §2

[5] = Rate 500 g/ha, 0 to 100 scale where 0 is no effect and 100 is complete control
[6] = Rate 1000 g/ha, 0 to 100 scale where 0 is no effect and 100 is complete control
[7] = Rate 16 g/ha, 0 no injury, 100 complete control
[8] = Rate 32 g/ha, 0 no injury, 100 complete control
[9] = Rate 64 g/ha, 0 no injury, 100 complete control
[10] = Rate 125 g/ha, 0 no injury, 100 complete control
[11] = Postemergence, Rate 125 g/ha, scale of 0 to 10 where 0 is no effect and 10 is complete control
[12] = Preemergence, Rate 62 g/ha, scale 0 to 10 (0 no effect, 10 complete control)
[13] = Preemergence, Rate 125 g/ha, scale 0 to 10 (0 no effect, 10 complete control)
[14] = Preemergence, Rate 250 g/ha, scale of 0 to 10 where 0 is no effect and 10 is complete control
[15] = Preemergence, Rate 500 g/ha, scale 0 to 10 (0 no effect, 10 complete control)
[16] = Rate 62 g/ha, Postemergence, scale of 0 to 10 where 0 is no effect and 10 is complete control
[17] = Rate 500 g/ha, Postemergence, scale 0 to 10, 0 no effect, 10 complete control
[18] = Preemergence, Rate 125 g/ha, 0 is no effect, 10 is complete control
[19] = Preemergence, scale of 0 to 10 where 0 is no effect and 10 is complete control
[20] = Postemergence, scale 0 to 10, 0 is no effect, 10 is complete control

## CC(C)N(C(=O)n1oc(=O)n(C2CCCCC2)c1=O)c1ccc(F)cc1F [Compound 115]
Smallflower flatsedge; Postemergence (flood test species), Rate 125 g/ha, scale of 0 to 10 where 0 is no effect and 10 is complete control
  S. Flatsedge plant response rating: 0
Smallflower flatsedge; Rate 62 g/ha, Postemergence section, flood test species, scale of 0 to 10 where 0 is no effect and 10 is complete control
  S. Flatsedge plant response rating: 0
Smallflower flatsedge; Rate 250 g/ha, Postemergence (flood test), scale 0 to 10, 0 is no effect, 10 is complete control
  Plant response rating, S. Flatsedge: 0
Smallflower flatsedge; Rate 500 g/ha, listed under Postemergence (flood test species), scale 0 to 10, 0 no effect, 10 complete control
  S. Flatsedge plant response rating: 0
Green foxtail; Rate 250 g/ha, 0 to 100 scale
  Plant response rating, Green foxtail: 65
Green foxtail; [5]
  Plant response rating, Green foxtail: 70
Green foxtail; [6]
  Plant response rating, Green foxtail: 90
itchgrass; [7]
  Plant response rating, Itchgrass: 40
itchgrass; [8]
  Plant response rating, Itchgrass: 40
itchgrass; [9]
  Plant response rating, Itchgrass: 40
itchgrass; [10]
  Plant response rating, Itchgrass: 50
itchgrass; Rate 250 g/ha
  Plant response rating, Itchgrass: 50
itchgrass; Rate 500 g/ha
  Plant response rating, Itchgrass: 50
Winter barley; Rate 250 g/ha, 0 to 100 scale
  Plant response rating, Barley (winter): 10
Winter barley; [5]
  Plant response rating, Barley (winter): 20
Winter barley; [6]
  Plant response rating, Barley (winter): 30
Johnson grass; [7]
  Plant response rating Johnsongrass: 0
Johnson grass; [8]
  Plant response rating Johnsongrass: 40
Johnson grass; [9]
  Plant response rating Johnsongrass: 40
Johnson grass; [10]
  Plant response rating Johnsongrass: 60
Johnson grass; Rate 250 g/ha
  Plant response rating Johnsongrass: 75
Johnson grass; Rate 500 g/ha
  Plant response rating Johnsongrass: 90
crabgrass; [11]
  Crabgrass plant response rating: 0
crabgrass; Postemergence, Rate 250 g/ha, scale 0 to 10, 0 no effect, 10 complete control
  Crabgrass plant response rating: 2
crabgrass; [12]
  Crabgrass plant response rating: 4
crabgrass; [13]
  Plant response rating, Crabgrass: 4
crabgrass; [14]
  Plant response rating, Crabgrass: 7
crabgrass; [15]
  Crabgrass plant response rating: 9
crabgrass; [16]
  Crabgrass plant response rating: 0
crabgrass; [17]
  Crabgrass plant response rating: 6
Italian ryegrass; Rate 250 g/ha, 0 to 100 scale
  Plant response rating, I. Ryegrass: 45
Italian ryegrass; [5]
  Plant response rating, I. Ryegrass: 50
Italian ryegrass; [6]
  Plant response rating, I. Ryegrass: 80
bermuda-grass; [7]
  Plant response rating, Bermudagrass: 75
bermuda-grass; [8]
  Plant response rating, Bermudagrass: 98
bermuda-grass; [9]
  Plant response rating, Bermudagrass: 98
bermuda-grass; [10]
  Plant response rating, Bermudagrass: 100
bermuda-grass; Rate 250 g/ha
  Plant response rating, Bermudagrass: 100
bermuda-grass; Rate 500 g/ha
  Plant response rating, Bermudagrass: 100
Wild oat [1]; [11]
  Wild oats plant response rating: 0
Wild oat [1]; [12]
  Wild oats plant response rating: 0
Wild oat [1]; [18]
  Wild oats plant response rating (0 to 10 scale): 0
Wild oat [1]; [19]
  Plant response rating, Wild oats: 0
Wild oat [1]; [15]
  Wild oats plant response rating: 4
Wild oat [1]; [16]
  Wild oats plant response rating: 0
Wild oat [1]; [20]
  Plant response rating, Wild oats: 0
Wild oat [1]; [17]
  Wild oats plant response rating: 0
Wild oat [2]; Rate 500 g/ha
  Plant response rating, Wild oat: 50
Wild oat [2]; Rate 1000 g/ha
  Plant response rating, Wild oat: 60
soybean; [11]
  Soybean plant response rating: 1
soybean; [12]
  Soybean plant response rating: 0
soybean; [13]
  Plant response rating, Soybean: 0
soybean; [14]
  Plant response rating, Soybean: 0
soybean; [15]
  Soybean plant response rating: 0
soybean; [16]
  Soybean plant response rating: 1
soybean; Rate 250 g/ha, Postemergence, scale 0 to 10, 0 is no effect, 10 is complete control
  Plant response rating, Soybean: 4
soybean; [17]
  Soybean plant response rating: 4
Winter wheat [3]; Rate 250 g/ha, 0 to 100 scale (0 no effect, 100 complete control)
  Plant response rating, Wheat (winter): 10
Winter wheat [3]; Rate 1000 g/ha, 0 to 100 scale, 0 is no effect and 100 is complete control
  Plant response rating, Wheat (winter): 40
Winter wheat [3]; Rate 500 g/ha, 0 to 100 scale, 0 no effect, 100 complete control
  Plant response rating, Wheat (winter): 20
Winter wheat [4]; Rate 250 g/ha, 0 to 100 scale
  Plant response rating, Wheat (winter): 5
Winter wheat [4]; [5]
  Plant response rating, Wheat (winter): 10
Winter wheat [4]; [6]
  Plant response rating, Wheat (winter): 20
blackgrass; Rate 250 g/ha, 0 to 100 scale
  Plant response rating, Blackgrass: 30
blackgrass; [5]
  Plant response rating, Blackgrass: 50
blackgrass; [6]
  Plant response rating, Blackgrass: 60
wheat; [11]
  Wheat plant response rating: 0
wheat; [12]
  Wheat plant response rating: 0
wheat; [18]
  Wheat plant response rating (0 to 10 scale): 0
wheat; [19]
  Plant response rating, Wheat: 0
wheat; [15]
  Wheat plant response rating: 0
wheat; [16]
  Wheat plant response rating: 0
wheat; [20]
  Plant response rating, Wheat: 0
wheat; [17]
  Wheat plant response rating: 0
